Tested on: MV-4-11 cells
Assay: Gene expression microarray analysis (Affymetrix PrimeView) and GSEA
Type: cell-based, human
Design: RFU PODN (11730768_x_at) / Fold change /veh PODN (11730768_x_at) / RFU LINC00158 (11744669_a_at) / Fold change /veh LINC00158 (11744669_a_at) / RFU DUSP10 (11751237_a_at) / Fold change /veh DUSP10 (11751237_a_at) / RFU ID3 (11757404_x_at) / Fold change /veh ID3 (11757404_x_at) / RFU PLEKHG5 (11737974_s_at) / Fold change /veh PLEKHG5 (11737974_s_at) / RFU LRRC4B (11730491_at) / Fold change /veh LRRC4B (11730491_at) / RFU GIMAP4 (11747438_a_at) / Fold change /veh GIMAP4 (11747438_a_at) / RFU KRT8 (11758183_x_at) / Fold change /veh KRT8 (11758183_x_at) / RFU CNN1 (11734310_a_at) / Fold change /veh CNN1 (11734310_a_at) / RFU VPS37D (11726825_at) / Fold change /veh VPS37D (11726825_at) / RFU C10orf10 (11716522_x_at) / Fold change /veh C10orf10 (11716522_x_at) / RFU KIR2DL2 /// KIR2DL4 /// KIR2DL5A /// KIR2DL5B /// KIR2DS1 /// KIR2DS2 /// KIR2DS3 /// KIR2DS4 /// KIR3DL3 /// KIR3DL3 /// KIR3DS1 (11738374_at) / Fold change /veh KIR2DL2 /// KIR2DL4 /// KIR2DL5A /// KIR2DL5B /// KIR2DS1 /// KIR2DS2 /// KIR2DS3 /// KIR2DS4 /// KIR3DL3 /// KIR3DL3 /// KIR3DS1 (11738374_at) / RFU C1QL1 (11718748_at) / Fold change /veh C1QL1 (11718748_at) / RFU TMPRSS4 (11747572_a_at) / Fold change /veh TMPRSS4 (11747572_a_at) / RFU HAMP (11756126_x_at) / Fold change /veh HAMP (11756126_x_at) / RFU RNFT2 (11725882_a_at) / Fold change /veh RNFT2 (11725882_a_at) / RFU NR4A2 (11747474_a_at) / Fold change /veh NR4A2 (11747474_a_at) / RFU ABCC12 (11746883_a_at) / Fold change /veh ABCC12 (11746883_a_at) / RFU TMEM136 (11760407_x_at) / Fold change /veh TMEM136 (11760407_x_at) / RFU CLDN22 /// WWC2 (11732394_at) / Fold change /veh CLDN22 /// WWC2 (11732394_at) / RFU HLA-DPB1 (11760878_x_at) / Fold change /veh HLA-DPB1 (11760878_x_at) / RFU SPINT1 (11716480_a_at) / Fold change /veh SPINT1 (11716480_a_at) / RFU GAP43 (11754022_s_at) / Fold change /veh GAP43 (11754022_s_at) / RFU A4GNT (11735810_at) / Fold change /veh A4GNT (11735810_at) / RFU PRB3 (11715151_x_at) / Fold change /veh PRB3 (11715151_x_at) / RFU TUBB4B (11761932_at) / Fold change /veh TUBB4B (11761932_at) / RFU CAPN14 (11732068_a_at) / Fold change /veh CAPN14 (11732068_a_at) / RFU TMCC2 (11721928_a_at) / Fold change /veh TMCC2 (11721928_a_at) / RFU IRGQ (11745062_a_at) / Fold change /veh IRGQ (11745062_a_at) / RFU FAM174B (11720279_a_at) / Fold change /veh FAM174B (11720279_a_at) / RFU TMPRSS4 (11748680_a_at) / Fold change /veh TMPRSS4 (11748680_a_at) / RFU FAM212B (11763350_a_at) / Fold change /veh FAM212B (11763350_a_at) / RFU PLEKHG5 (11743358_a_at) / Fold change /veh PLEKHG5 (11743358_a_at) / RFU ZSCAN30 (11745921_a_at) / Fold change /veh ZSCAN30 (11745921_a_at) / RFU CMKLR1 (11741424_a_at) / Fold change /veh CMKLR1 (11741424_a_at) / RFU LOC101060620 /// MAPK8IP1 (11723275_at) / Fold change /veh LOC101060620 /// MAPK8IP1 (11723275_at) / RFU SPTSSB (11747773_x_at) / Fold change /veh SPTSSB (11747773_x_at) / RFU PRSS12 (11739890_at) / Fold change /veh PRSS12 (11739890_at) / RFU BIN1 (11741810_x_at) / Fold change /veh BIN1 (11741810_x_at) / RFU WNT11 (11732464_a_at) / Fold change /veh WNT11 (11732464_a_at) / RFU C10orf10 (11716521_a_at) / Fold change /veh C10orf10 (11716521_a_at) / RFU C5orf56 (11738089_at) / Fold change /veh C5orf56 (11738089_at) / RFU CYB561 (11721691_x_at) / Fold change /veh CYB561 (11721691_x_at) / RFU ANKRD19P (11752326_a_at) / Fold change /veh ANKRD19P (11752326_a_at) / RFU OR2T12 /// OR2T33 /// OR2T8 (11738714_s_at) / Fold change /veh OR2T12 /// OR2T33 /// OR2T8 (11738714_s_at) / RFU VCAN (11748164_a_at) / Fold change /veh VCAN (11748164_a_at) / RFU JSRP1 (11732532_at) / Fold change /veh JSRP1 (11732532_at) / RFU KRTAP10-11 (11738290_x_at) / Fold change /veh KRTAP10-11 (11738290_x_at) / RFU MYO3A (11730013_a_at) / Fold change /veh MYO3A (11730013_a_at) / RFU EBF3 (11725865_a_at) / Fold change /veh EBF3 (11725865_a_at) / RFU CAMK2N1 (11719241_x_at) / Fold change /veh CAMK2N1 (11719241_x_at) / RFU C5orf56 (11738088_a_at) / Fold change /veh C5orf56 (11738088_a_at) / RFU OLFML3 (11715873_a_at) / Fold change /veh OLFML3 (11715873_a_at) / RFU LOC100653217 /// NTM (11731650_a_at) / Fold change /veh LOC100653217 /// NTM (11731650_a_at) / RFU MAPK11 (11762145_a_at) / Fold change /veh MAPK11 (11762145_a_at) / RFU FIZ1 (11724087_x_at) / Fold change /veh FIZ1 (11724087_x_at) / RFU OASL (11726364_x_at) / Fold change /veh OASL (11726364_x_at) / RFU SOX15 (11748057_x_at) / Fold change /veh SOX15 (11748057_x_at) / RFU CD79A (11719716_a_at) / Fold change /veh CD79A (11719716_a_at) / RFU HIST1H1D (11736915_at) / Fold change /veh HIST1H1D (11736915_at) / RFU CASKIN2 (11723855_a_at) / Fold change /veh CASKIN2 (11723855_a_at) / RFU LOC730098 (11760151_x_at) / Fold change /veh LOC730098 (11760151_x_at) / RFU OR4N2 (11742367_at) / Fold change /veh OR4N2 (11742367_at) / RFU PRRT2 (11749266_a_at) / Fold change /veh PRRT2 (11749266_a_at) / RFU SNX32 (11753110_a_at) / Fold change /veh SNX32 (11753110_a_at) / RFU CDHR5 (11726645_a_at) / Fold change /veh CDHR5 (11726645_a_at) / RFU RCAN1 (11760418_a_at) / Fold change /veh RCAN1 (11760418_a_at) / RFU FAM167A (11723789_a_at) / Fold change /veh FAM167A (11723789_a_at) / RFU FAM26E (11764081_at) / Fold change /veh FAM26E (11764081_at) / RFU ISYNA1 (11749810_s_at) / Fold change /veh ISYNA1 (11749810_s_at) / RFU ACY1 (11761880_at) / Fold change /veh ACY1 (11761880_at) / RFU 11764098_at / Fold change /veh 11764098_at / RFU SAMD14 (11745864_x_at) / Fold change /veh SAMD14 (11745864_x_at) / RFU NPB (11741838_a_at) / Fold change /veh NPB (11741838_a_at) / RFU TMPRSS6 (11731388_a_at) / Fold change /veh TMPRSS6 (11731388_a_at) / RFU KRTAP10-2 (11738614_at) / Fold change /veh KRTAP10-2 (11738614_at) / RFU ARHGAP8 /// PRR5-ARHGAP8 (11727945_x_at) / Fold change /veh ARHGAP8 /// PRR5-ARHGAP8 (11727945_x_at) / RFU KRTAP5-7 /// NADSYN1 (11734609_at) / Fold change /veh KRTAP5-7 /// NADSYN1 (11734609_at) / RFU RASL12 (11751679_a_at) / Fold change /veh RASL12 (11751679_a_at) / RFU CDKN2B (11736163_a_at) / Fold change /veh CDKN2B (11736163_a_at) / RFU PRF1 (11729649_at) / Fold change /veh PRF1 (11729649_at) / RFU, ZNF638 /// ZNF638-IT1 / Fold change vs veh, ZNF638 /// ZNF638-IT1 / RFU, PANK3 / Fold change vs veh, PANK3 / RFU, SH3YL1 / Fold change vs veh, SH3YL1 / RFU, ZEB2 / Fold change vs veh, ZEB2 / RFU, NRIP1 / Fold change vs veh, NRIP1 / RFU, PTTG1IP / Fold change vs veh, PTTG1IP / RFU, CAPN2 / Fold change vs veh, CAPN2 / RFU, MED14 / Fold change vs veh, MED14 / RFU, SNORA58 / Fold change vs veh, SNORA58 / RFU, C1orf63 / Fold change vs veh, C1orf63 / RFU, LRRFIP1 / Fold change vs veh, LRRFIP1 / RFU, NDUFAF7 / Fold change vs veh, NDUFAF7 / RFU, SLC12A2 / Fold change vs veh, SLC12A2 / RFU, IBTK / Fold change vs veh, IBTK / RFU, ESF1 / Fold change vs veh, ESF1 / Fold change vs veh, TMEM50B / RFU, TAOK1 / Fold change vs veh, TAOK1 / RFU, ACBD3 / Fold change vs veh, ACBD3 / RFU, TMA16 / Fold change vs veh, TMA16 / RFU, RWDD3 / Fold change vs veh, RWDD3 / RFU, BCAT1 / Fold change vs veh, BCAT1 / RFU, EDEM3 / Fold change vs veh, EDEM3 / RFU, TMEM33 / Fold change vs veh, TMEM33 / RFU, WDR75 / Fold change vs veh, WDR75 / RFU, AHCTF1 / Fold change vs veh, AHCTF1 / RFU, TFRC / Fold change vs veh, TFRC / RFU, ZDHHC17 / Fold change vs veh, ZDHHC17 / RFU, NOM1 / Fold change vs veh, NOM1 / RFU, ARL8B / Fold change vs veh, ARL8B / RFU, ZBTB11 / Fold change vs veh, ZBTB11 / RFU, TAMM41 / Fold change vs veh, TAMM41 / RFU, KIAA1704 /// LOC100996395 / Fold change vs veh, KIAA1704 /// LOC100996395 / RFU, ING1 / Fold change vs veh, ING1 / RFU, TRMT61B / Fold change vs veh, TRMT61B / RFU, FUBP3 / Fold change vs veh, FUBP3 / RFU, TP53 / Fold change vs veh, TP53 / RFU, TNKS2 / Fold change vs veh, TNKS2 / RFU, ZFP14 / Fold change vs veh, ZFP14 / RFU, ACTR2 / Fold change vs veh, ACTR2 / RFU, PPP3R1 / Fold change vs veh, PPP3R1 / RFU, PIK3R1 / Fold change vs veh, PIK3R1 / RFU, HNRNPA1 / Fold change vs veh, HNRNPA1 / RFU, RNF170 / Fold change vs veh, RNF170 / RFU, ZNF28 / Fold change vs veh, ZNF28 / RFU, RNGTT / Fold change vs veh, RNGTT / RFU, OGT / Fold change vs veh, OGT / RFU, BRD1 / Fold change vs veh, BRD1 / RFU, MARS / Fold change vs veh, MARS / RFU, ZNF655 / Fold change vs veh, ZNF655 / RFU, FAHD1 / Fold change vs veh, FAHD1 / RFU, BDP1 / Fold change vs veh, BDP1 / RFU, LRRCC1 / Fold change vs veh, LRRCC1 / RFU, ARID1A / Fold change vs veh, ARID1A / RFU, ZNF146 / Fold change vs veh, ZNF146 / RFU, ZNF330 / Fold change vs veh, ZNF330 / RFU, GPN3 / Fold change vs veh, GPN3 / RFU, C9orf123 / Fold change vs veh, C9orf123 / RFU, N4BP2L2 / Fold change vs veh, N4BP2L2 / RFU, ARFIP1 / Fold change vs veh, ARFIP1 / RFU, FAM179B / Fold change vs veh, FAM179B / RFU, BCL10 / Fold change vs veh, BCL10 / RFU, UHRF1BP1L / Fold change vs veh, UHRF1BP1L / RFU, BET1 / Fold change vs veh, BET1 / RFU, CNOT2 / Fold change vs veh, CNOT2 / RFU, ZNF268 / Fold change vs veh, ZNF268 / Fold change vs veh, ZNF507 / RFU, DGCR2 / Fold change vs veh, DGCR2 / RFU, WDSUB1 / Fold change vs veh, WDSUB1 / Fold change vs veh, HSP90B1 /// MIR3652 / RFU, ADSS / Fold change vs veh, ADSS / RFU, GK / Fold change vs veh, GK / RFU, ZNF148 / Fold change vs veh, ZNF148 / RFU, TAF9 / Fold change vs veh, TAF9 / RFU, SLC1A5 / Fold change vs veh, SLC1A5 / RFU, SLMO2 / Fold change vs veh, SLMO2 / RFU, ABCC4 / Fold change vs veh, ABCC4 / RFU, LOC101060439 /// RAP1B / Fold change vs veh, LOC101060439 /// RAP1B / RFU, RFX7 / Fold change vs veh, RFX7 / RFU, GTPBP10 / Fold change vs veh, GTPBP10 / RFU, CNEP1R1 / Fold change vs veh, CNEP1R1 / RFU, BIVM-ERCC5 /// ERCC5 / Fold change vs veh, BIVM-ERCC5 /// ERCC5 / RFU, ILF3 / Fold change vs veh, ILF3 / RFU 11762660_at / Fold change /veh 11762660_at / RFU VCAN (11757783_s_at) / Fold change /veh VCAN (11757783_s_at) / RFU DDX43 (11728927_at) / Fold change /veh DDX43 (11728927_at) / RFU KRT8 (11758188_x_at) / Fold change /veh KRT8 (11758188_x_at) / RFU NKD1 (11759106_at) / Fold change /veh NKD1 (11759106_at) / RFU SRD5A1 (11742802_a_at) / Fold change /veh SRD5A1 (11742802_a_at) / RFU TPSAB1 /// TPSB2 (11721975_s_at) / Fold change /veh TPSAB1 /// TPSB2 (11721975_s_at) / RFU GSTM3 (11746129_a_at) / Fold change /veh GSTM3 (11746129_a_at) / RFU IL23R (11737362_x_at) / Fold change /veh IL23R (11737362_x_at) / RFU TMEM51 (11727254_a_at) / Fold change /veh TMEM51 (11727254_a_at) / RFU PIWIL2 (11732686_x_at) / Fold change /veh PIWIL2 (11732686_x_at) / RFU ORM1 (11744905_x_at) / Fold change /veh ORM1 (11744905_x_at) / RFU CCDC152 (11743942_at) / Fold change /veh CCDC152 (11743942_at) / RFU ECM1 (11717891_a_at) / Fold change /veh ECM1 (11717891_a_at) / RFU IL23R (11748794_a_at) / Fold change /veh IL23R (11748794_a_at) / RFU TNFAIP8L3 (11732012_x_at) / Fold change /veh TNFAIP8L3 (11732012_x_at) / RFU MBOAT4 (11741988_at) / Fold change /veh MBOAT4 (11741988_at) / RFU 11764193_at / Fold change /veh 11764193_at / RFU TMEM53 (11763286_at) / Fold change /veh TMEM53 (11763286_at) / RFU MAGEB2 (11727129_at) / Fold change /veh MAGEB2 (11727129_at) / RFU TMEM200A (11744735_a_at) / Fold change /veh TMEM200A (11744735_a_at) / RFU CCDC152 (11751479_a_at) / Fold change /veh CCDC152 (11751479_a_at) / RFU FAM211A (11726209_a_at) / Fold change /veh FAM211A (11726209_a_at) / RFU RGS16 (11746705_a_at) / Fold change /veh RGS16 (11746705_a_at) / RFU VCAN (11755009_s_at) / Fold change /veh VCAN (11755009_s_at) / RFU RHOB (11743442_s_at) / Fold change /veh RHOB (11743442_s_at) / RFU RGS16 (11720943_a_at) / Fold change /veh RGS16 (11720943_a_at) / RFU RGS16 (11720944_at) / Fold change /veh RGS16 (11720944_at) / RFU, VPS4B / Fold change vs veh, VPS4B / RFU, CREB1 / Fold change vs veh, CREB1 / RFU, DNAJC13 / Fold change vs veh, DNAJC13 / RFU, GNAQ / Fold change vs veh, GNAQ / RFU, CDK5R1 / Fold change vs veh, CDK5R1 / RFU, ZRANB3 / Fold change vs veh, ZRANB3 / RFU, CUL4A / Fold change vs veh, CUL4A / RFU, CCNY / Fold change vs veh, CCNY / RFU, UFL1 / Fold change vs veh, UFL1 / RFU, COG3 / Fold change vs veh, COG3 / RFU, DIAPH2 / Fold change vs veh, DIAPH2 / RFU, SKA2 / Fold change vs veh, SKA2 / RFU, AFF3 / Fold change vs veh, AFF3 / RFU, LMF1 / Fold change vs veh, LMF1 / RFU, IPO11 / Fold change vs veh, IPO11 / RFU, DFFB / Fold change vs veh, DFFB / RFU, FOXP1 / Fold change vs veh, FOXP1 / RFU, CARD8 / Fold change vs veh, CARD8 / RFU, STRN3 / Fold change vs veh, STRN3 / RFU, ADK / Fold change vs veh, ADK / RFU, RASSF2 / Fold change vs veh, RASSF2 / RFU, WIPF1 / Fold change vs veh, WIPF1 / RFU, LARP1B / Fold change vs veh, LARP1B / RFU, RASA1 / Fold change vs veh, RASA1 / RFU, RB1 / Fold change vs veh, RB1 / RFU, PPFIA1 / Fold change vs veh, PPFIA1 / RFU, MAT2A / Fold change vs veh, MAT2A / RFU, CCT5 / Fold change vs veh, CCT5 / RFU, WDR92 / Fold change vs veh, WDR92 / RFU, CUX1 / Fold change vs veh, CUX1 / RFU, TTC7A / Fold change vs veh, TTC7A / RFU, TMEM135 / Fold change vs veh, TMEM135 / RFU, DEPTOR / Fold change vs veh, DEPTOR / RFU, CPM / Fold change vs veh, CPM / RFU, DNAJB6 / Fold change vs veh, DNAJB6 / RFU, CACNA2D3 / Fold change vs veh, CACNA2D3 / RFU, DTX4 / Fold change vs veh, DTX4 / RFU, TFCP2 / Fold change vs veh, TFCP2 / RFU, GMCL1 /// GMCL1P1 / Fold change vs veh, GMCL1 /// GMCL1P1 / RFU, AEBP2 / Fold change vs veh, AEBP2 / RFU, SNHG1 /// SNORD22 /// SNORD25 /// SNORD26 /// SNORD27 /// SNORD28 /// SNORD29 /// SNORD31 / Fold change vs veh, SNHG1 /// SNORD22 /// SNORD25 /// SNORD26 /// SNORD27 /// SNORD28 /// SNORD29 /// SNORD31 / Fold change (Aza/veh), C12orf56 (ProbeSet 11735607_a_at) / Fold change (ACY-1035/veh), C12orf56 (ProbeSet 11735607_a_at) / Fold change (Aza/veh), FGFR1OP (ProbeSet 11751329_s_at) / Fold change (ACY-1035/veh), FGFR1OP (ProbeSet 11751329_s_at) / Fold change (Aza/veh), VPS36 (ProbeSet 11739960_a_at) / Fold change (ACY-1035/veh), VPS36 (ProbeSet 11739960_a_at) / RFU SYPL1 (11715823_x_at) / Fold change /veh SYPL1 (11715823_x_at) / RFU IGFBP7 (11715501_s_at) / Fold change /veh IGFBP7 (11715501_s_at) / RFU REEP3 (11722064_at) / Fold change /veh REEP3 (11722064_at) / RFU IGLL1 (11728026_x_at) / Fold change /veh IGLL1 (11728026_x_at): dose or concentration left out as unconfirmed
Conditions: ProbeSet 11750457_a_at; LIST B

Nc1ncn([C@@H]2O[C@H](CO)[C@@H](O)[C@H]2O)c(=O)n1 [azacitidine]
Fold change vs veh, GTPBP10: 0.84

Reference: article PMC5218480 (PLoS ONE, 2017)
